Test system: platelets
Experiment: Microscopic platelet degranulation at 5° C. with cryoprotective agents
Format: cell-based, human
Design: key to effect on microscopic degranulation, 0.75% / effect on microscopic degranulation, 0.38% / effect on microscopic degranulation, 3% / effect on microscopic degranulation, 1.5% / effect of cryoprotective on platelet degranulation, 3% / effect of cryoprotective on platelet degranulation, 1.5% / effect of cryoprotective on platelet degranulation, 0.75% / effect of cryoprotective on platelet degranulation, 0.38%: none: None = no effect detected ~90% complete degranulation; fair: Fair = 25 to 50% of platelets are non-degranulated; good: Good = >80 are non-degranulated
Conditions: for effect of cryoprotective on platelet degranulation, 3% / effect on microscopic degranulation, 3%: 3% final in ACD-Platelet mixture; for platelet colour / granule preservation: 5° C.; for effect of cryoprotective on platelet degranulation, 0.38% / effect on microscopic degranulation, 0.38%: 0.38% final in ACD-Platelet mixture; for effect of cryoprotective on platelet degranulation, 0.75% / effect on microscopic degranulation, 0.75%: 0.75% final in ACD-Platelet mixture; for effect of cryoprotective on platelet degranulation, 1.5% / effect on microscopic degranulation, 1.5%: 1.5% final in ACD-Platelet mixture
Method: Platelet aggregation using epinephrine. Ten ml of 24 hr old platelet residual was derived from one platelet unit and split into two 5 ml aliquots in 50 ml tubes. One sample received 10% phosphate buffered saline (PBS) and one 10% PBS containing PEG400 such that the final PEG concentration was 2%. These samples were placed on a flat-bed rotator with a 1 inch stroke, at 70 cycles per min, at 5° C. for 7 days. 100 ul of these platelet suspensions were added to wells of a 96 well U bottom plate. Epinephrine 0.1 mg/ml (Pharmaceutical NDC 0409-4921-34-44-048-DK) was diluted with PBS and 100 ul was added to test wells to give a finial concentration of 10 mcg/ml. The plate was rotated overnight to allow aggregation. The extent of aggregation was read using an ELISA plate reader (Molecular Devises, Vmax) at 690 nm wavelength. Platelets, with and without PEG, were also aggregated by the addition of 10% H2O2. Hydrogen peroxide is not an agonist for the platelet receptor; however exposure to hydrogen peroxide mimics the platelet storage lesion though membrane ageing. In this study, the inventors tested 2 day old residual platelets form one donor unit by splitting the material in to a 24 well cluster plate. Control platelets had 10% PBS added and were compared to test compositions with the addition of 10% volume PBS plus 2% PEG-400. 10% v/v (Hydrogen peroxide 3%) was then added to all wells simultaneously using a multichannel pipette. Wells were photographed following 1 hr room temperature incubation (see FIGS. 2A-B and FIG. 3). Table 3 presents additional cryoprotective agents scored for the effect on microscopic degranulation (20× high contrast lighting as above).
The following methods were used: “Fresh” in-date 2 day old blood bank O pos random donor platelets were recovered from segments and held in a 50 cc tub with rotation 22° C., 70 cycles/min 1 inch stroke) for 30 min. Glycerol (Fisher tissue grade product) was obtained from virology diluted to 50% in sterile saline and filter sterilized. 12 g glycerol were added to 12 ml sterile saline (BioMeriux—vitek saline) and mixed. This mixture was filter sterilized using a 0.45 um filter (CELLULOSE ACETATE). Dilutions were made of the above saline to a concentration 50%, 25%, 12%, 6%, […]. 200 ul of platelets were withdrawn slowly (8 sec) and add slowly to 7 sterile 2 ml microcentrifuge tubes. 200 ul of 50%, 25%, 12% 6%, and 3% glycerol/saline and two controls using 200 ul saline, were then added to the platelets with slow mixing. Thus the final glycerol concentrations=25, 12, 6, 3, and 1.5. These aliquots were allowed to rotate at room temp as above for 5 min and then placed on a rotator at 70 cycles/min with a 1 inch stroke at 5° C. (temp previously equilibrated and documented at 5° C.)
At day 3, dark dense platelets were observed, indicating degranulation in the control groups (in both control groups A & B). A variation in platelet size was observed: small and dense indicating degranulation, vs. normal morphology pale plump platelets without the dense small degranulated appearance. Degranulation in response to cold storage is associated with the first step of the platelet activation GP-1 signal resulting in α-granule degranulation and massive extracellular release of vWF. (Suhasini el al., 2010). Table 4 presents a summary of additional cryoprotective agents scored for the effect on microscopic degranulation (20× high contrast lighting as above).

[1] = 6% final in ACD-Platelet mixture, 10 days at 5° C.

Row | Molecule | 5° C. induced degranulation (3% and 6% glycerol, at 3, 6, and 10 days) | effect of cryoprotective on platelet degranulation, 3% (10 days at 5° C.) | effect on microscopic degranulation, 3% (10 days at 5° C.) | platelet colour / granule preservation (3% glycerol or 6% glycerol, day 10) | platelet colour / granule preservation (3% glycerol, day 3) | platelet colour / granule preservation (3% glycerol, day 6) | effect of cryoprotective on platelet degranulation, 6% [1] | effect on microscopic degranulation, 6% [1] | effect of cryoprotective on platelet degranulation, 0.38% (6 days at 5° C.) | effect on microscopic degranulation, 0.38% (6 days at 5° C.) | effect of cryoprotective on platelet degranulation, 0.75% (6 days at 5° C.) | effect on microscopic degranulation, 0.75% (6 days at 5° C.) | effect of cryoprotective on platelet degranulation, 1.5% (6 days at 5° C.) | effect on microscopic degranulation, 1.5% (6 days at 5° C.) | effect of cryoprotective on platelet degranulation, 3% (6 days at 5° C.) | effect on microscopic degranulation, 3% (6 days at 5° C.)
1 | OCC(O)CO [Glycerol] | prevented 5 °C induced degranulation | fair (Fair = 25 to 50% of platelets are non-degranulated) | fair (Fair = 25 to 50% of platelets are non-degranulated) | light color of platelets was observed, indicating granule preservation | light color of platelets was observed, indicating granule preservation | light color of platelets was observed, indicating granule preservation | good (Good = >80 are non-degranulated) | good (Good = >80 are non-degranulated) |  |  |  |  |  |  |  | 
2 | Methoxy PEG |  |  |  |  |  |  |  |  | none | none | none | none | good (Good = >80 are non-degranulated) | good (Good = >80 are non-degranulated) | good (Good = >80 are non-degranulated) | good (Good = >80 are non-degranulated)
3 | glycerol propoxylate |  |  |  |  |  |  |  |  | none | none | fair (Fair = 25 to 50% of platelets are non-degranulated) | fair (Fair = 25 to 50% of platelets are non-degranulated) | fair (Fair = 25 to 50% of platelets are non-degranulated) | fair (Fair = 25 to 50% of platelets are non-degranulated) | none | none
4 | pentaerythritol ethoxylate |  |  |  |  |  |  |  |  | none | none | none | none | none | none | none | none
5 | pentaerythritol propoxylate |  |  |  |  |  |  |  |  | fair (Fair = 25 to 50% of platelets are non-degranulated) | fair (Fair = 25 to 50% of platelets are non-degranulated) | none | none | none | none | none | none
6 | trimethylolpropane ethoxylate [Trimethylopropane ethoxylate] |  |  |  |  |  |  |  |  | none | none | none | none | none | none | none | none
